Legend:
[1] = tested on: mouse model with osteoporosis induced by ovariectomy; assay: Mouse model with osteoporosis induced by ovariectomy (DEXA, micro CT); assay type: in vivo, C57BL/6 mouse; settings: compared to PBS after ovariectomy, oral, five weeks
Text: Test groups were divided into a sham group (only surgery without ovary removal) and a group treated with ovariectomy (OVX). In the OVX group, the ovaries of an eight-week old female C57BL/6 mouse were removed by surgery and the mouse was bred for 6 weeks to induce osteoporosis. […] The sample was used after dissolving in PBS. Furthermore, the sham group was orally administered with PBS for five weeks.
Upon termination of five weeks' oral administration, the Bone Mineral Density (BMD) and Bone Mineral Content (BMC) of the mouse were measured using an osteoporosis analyzing device Dual-Energy X-ray Absorptiometry (DEXA; bone mineral density analyzer), and the results are shown in FIG. 21a-21d.
Upon termination of five weeks' oral administration, the mice of each experimental group were sacrificed, and the bones adjacent to tibia were separated. The bones were then photographed to obtain their 3-dimensional structures and cross-sections via micro CT, and the microstructures and volume of the bones and trabecular thickness were measured.

[2] = tested on: osteoclasts; assay: Differentiation and formation of osteoclasts from bone marrow macrophages (TRAP assay); assay type: cell-based, ICR mouse; settings: BMM cells
Text: Osteoclasts are known to directly affect bone resorption, and the differentiation and formation of osteoclasts play a very important role in osteoporosis. In order to examine the effect of the ethanol extract of Salvia plebeia R. Br. on the differentiation and formation of osteoclasts, the differentiation from bone marrow cells isolated from the femur of an ICR mouse into osteoclasts was observed.
Bone marrow cells were separated from the femur of a three- to six-week old ICR mouse, and the separated cells were treated with M-CSF (30 ng/ml) for 3 days, thereby inducing their differentiation into bone marrow macrophage (BMM). Then, the BMM was treated with M-CSF (30 ng/ml) and RANKL (100 ng/ml) for 4 days, thereby inducing them to be differentiated into osteoclasts. […] Then, the differentiation and formation of osteoclasts were confirmed by TRAP assay.

NCCCC(O)(P(=O)(O)O)P(=O)(O)O [alendronate]
Bone Mineral Content (BMC) [1]: significant increase
differentiation of osteoclasts ([2]; 10 μM): differentiation of osteoclasts was observed
formation of osteoclasts ([2]; 30 and 60 μM): osteoclasts were not formed due to toxicity
